Source: US20150268248A1, “CELL SELECTIVE PROTEOME LABELING” (MEMORIAL SLOAN-KETTERING CANCER CENTER, priority 2012, published 2015)
“Also recorded” adds a separate entry of the source.

Tests used:
[1] = system: HEK293T cells expressing a truncated Lysine racemase (lyr); test: Growth on D-lysine of cells expressing truncated lyr (xCELLigence impedance); assay type: cell-based, human; conditions: mono- and co-culture in vitro
Procedure: (§1) Cell growth, assessed with impedance (a correlate of the number of cells) using the xCELLigence system, was normalized to maximum growth. Error bars represent the standard deviation of three biological replicates.
(§2) Cell lines were grown in Dulbecco's modified Eagle's medium (DMEM) without L-Lysine and L-Arginine (SILAC-DMEM, Thermo Fisher Scientific) supplemented with 10% dialyzed FBS, antibiotics, and L-glutamine. For mono-culture growth assays, 1 mM L-Arginine was added to the media and cells were seeded in 200 μL in 96-well plates with 4000 or 5000 cells per well in different concentrations of L-Lysine, meso-2,6-diaminopimelate (DAP, Sigma, 33240), D-Lysine HCL (Sigma, L5876), N-α-Cbz-L-Lysine (Z-Lysine, BaChem, C-2200), or N2-acetyl-L-Lysine (N2A, Sigma, A2010). Cell viability was measured using either the metabolic-activity based Resazurin (Sigma) reagent or the impedance-based xCELLigence system (Roche). For Resazurin experiments, 25 μL of the Resazurin reagent was added to each well and cellular growth was estimated after two to three hours of incubation at 37° C. as described by the manufacturer. For xCELLigence experiments, cells were plated in either 16 or 96-well E-plates, allowed to settle for 30 minutes at room temperature, and then placed in the RTCA DP or RTCA MP analyzer where impedance was measured every 15 minutes for 96-120 hours. […]

[2] = system: DDC-expressing 3T3 cells; test: Growth rescue on precursors in L-Lysine-free medium (xCELLigence impedance); assay type: cell-based, mouse; conditions: 10 mM DAP or 4 mM D-Lysine, mono-culture
Procedure: as §1
(§3) Cell lines were grown in Dulbecco's modified Eagle's medium (DMEM) without L-Lysine and L-Arginine (SILAC-DMEM, Thermo Fisher Scientific) supplemented with 10% dialyzed FBS, antibiotics, and L-glutamine. […] Cell viability was measured using either the metabolic-activity based Resazurin (Sigma) reagent or the impedance-based xCELLigence system (Roche). For Resazurin experiments, 25 μL of the Resazurin reagent was added to each well and cellular growth was estimated after two to three hours of incubation at 37° C. as described by the manufacturer. For xCELLigence experiments, cells were plated in either 16 or 96-well E-plates, allowed to settle for 30 minutes at room temperature, and then placed in the RTCA DP or RTCA MP analyzer where impedance was measured every 15 minutes for 96-120 hours. At least three replicates were performed for each condition.

[3] = system: lyr-expressing MDA-MB-231 cells; test: as above; assay type: cell-based, human; conditions: 4 mM D-Lysine or 10 mM DAP, mono-culture
Procedure: as §1, §3

[4] = system: B16 cells expressing truncated Lysine racemase (lyr); test: Growth on D-lysine of cells expressing truncated lyr; assay type: cell-based, mouse; conditions: mono- and co-culture in vitro
Procedure: CTAP can be quickly adaptable across many cell types without phenotypic or molecular disturbance. Cell lines that are suitable for use in practicing the method of the invention include, but are not limited to mouse fibroblast 3T3 cells, mouse melanoma, B16 cells, human embryonic kidney (HEK) cells, human mammary adenocarcinoma cells, […], etc.
as §2, with “For Resazurin experiments, 25 μL of the Resazurin reagent was added to each well and cellular growth was estimated after two to three hours of incubation at 37° C. as described by the manufacturer.” left out

[5] = system: HEK 293T cells; test: Growth of wild-type cells on L-Lysine precursors (Resazurin/AlamarBlue); assay type: cell-based, human; conditions: wild-type HEK 293T; medium without L-Lysine supplemented with high (mM-range) concentrations of precursor
Procedure: (§4) (a) Cells were seeded in 96 well format using at least 4 replicates per condition and cell proliferation was measured with the Resazurin (AlamarBlue) assay at the time indicated.
(§5) To investigate the candidate precursors and eliminate those that autonomously rescue L-Lysine auxotrophy, growth rates in SILAC media supplemented with L-Lysine, various precursors, or in L-Lysine-free conditions were examined.
as §3

[6] = system: 3T3 cells; test: as above; assay type: cell-based, mouse; conditions: wild-type 3T3; medium without L-Lysine supplemented with high (mM-range) concentrations of precursor
Procedure: as §4, §5, §3

[7] = system: MDA-MB-231 cells expressing truncated Lysine racemase (lyr); test: Growth on D-lysine of cells expressing truncated lyr; assay type: cell-based, human; conditions: mono- and co-culture in vitro
Procedure: Cell lines were grown in Dulbecco's modified Eagle's medium (DMEM) without L-Lysine and L-Arginine (SILAC-DMEM, Thermo Fisher Scientific) supplemented with 10% dialyzed FBS, antibiotics, and L-glutamine. For mono-culture growth assays, 1 mM L-Arginine was added to the media and cells were seeded in 200 μL in 96-well plates with 4000 or 5000 cells per well in different concentrations of L-Lysine, meso-2,6-diaminopimelate (DAP, Sigma, 33240), D-Lysine HCL (Sigma, L5876), N-α-Cbz-L-Lysine (Z-Lysine, BaChem, C-2200), or N2-acetyl-L-Lysine (N2A, Sigma, A2010). Cell viability was measured using either the metabolic-activity based Resazurin (Sigma) reagent or the impedance-based xCELLigence system (Roche). For Resazurin experiments, 25 μL of the Resazurin reagent was added to each well and cellular growth was estimated after two to three hours of incubation at 37° C. as described by the manufacturer. For xCELLigence experiments, cells were plated in either 16 or 96-well E-plates, allowed to settle for 30 minutes at room temperature, and then placed in the RTCA DP or RTCA MP analyzer where impedance was measured every 15 minutes for 96-120 hours. At least three replicates were performed for each condition.

[8] = system: DDC-expressing HEK293T cells; test: Growth rescue on precursors in L-Lysine-free medium (xCELLigence impedance); assay type: cell-based, human; conditions: 10 mM DAP, mono-culture
Procedure: FIG. 9 are graphs showing that HEK293T cells expressing the L-Lysine biosynthesis enzyme diaminopimelate decarboxylase (DDC) specifically grow on meso-2,6-diaminopimelate (DAP). HEK293T cells stably transfected with DDC (left panel) or empty control vector (right panel) were cultured in 0.798 mM L-Lysine, 10 mM DAP, or neither (blank). Cell growth was estimated by the impedance-based xCelligence assay and data was normalized to the maximum value for each cell-type. Note that only HEK293T cells that express DDC grow on DAP. Error bars represent the standard deviation of three biological replicates.
The time to reach normal growth rates varied between cell-types from immediate to a short passaging/selection period.
as §3, with “For Resazurin experiments, 25 μL of the Resazurin reagent was added to each well and cellular growth was estimated after two to three hours of incubation at 37° C. as described by the manufacturer.” left out, “At least three replicates were performed for each condition.” left out

[9] = system: CBZcleaver-expressing 3T3 cells; test: Growth on Z-Lysine (xCELLigence impedance); assay type: cell-based, mouse; conditions: 2.5 mM Z-Lysine, L-Lysine-free
Procedure: FIG. 10 are graphs showing that 3T3 cells expressing the CBZcleaver enzyme grow on Z-Lysine and partially incorporate L-Lysine produced from Z-Lysine (CBZ-Lysine). (a) 3T3 cells stably trasfected with CBZcleaver (left panel) or empty control vector (right panel) were cultured in 0.798 mM L-Lysine, 2.5 mM Z-Lysine, or without either (blank). Cell growth was estimated by the impedance-based xCELLigence assay and data was normalized to maximum values for each cell-type. Error bars represent the standard deviation of three biological replicates. […] The labeling status was assessed by quantitative LC-MS/MS at the beginning of the experiment where the cells were labeled with medium L-Lysine (left, K4) and after 10 days in L-Lysine-free media with heavy labeled Z-Lysine (right, Z8). […]
as §3, with “For Resazurin experiments, 25 μL of the Resazurin reagent was added to each well and cellular growth was estimated after two to three hours of incubation at 37° C. as described by the manufacturer.” left out, “At least three replicates were performed for each condition.” left out

Compound | growth on D-lysine relative to growth on L-lysine [1] | growth rate relative to media containing L-Lysine [2] | growth rate relative to media containing L-Lysine [3] | growth on D-lysine relative to growth on L-lysine [4] | growth response [5] | growth response [6] | growth on D-lysine relative to growth on L-lysine [7] | growth rate relative to media containing L-Lysine [8] | growth on Z-Lysine [9]
NCCCC[C@@H](N)C(=O)O [D-Lysine] | comparable | no growth | comparable | comparable | no or limited growth response | no or limited growth response | comparable |  | 
N[C@H](CCC[C@H](N)C(=O)O)C(=O)O [DAP, meso-2,6-diaminopimelate] |  | comparable | no growth |  | no or limited growth response | no or limited growth response |  | comparable | 
CC(=O)N[C@@H](CCCCN)C(=O)O [N2A, N2-acetyl-L-Lysine] |  |  |  |  | substantial growth response | substantial growth response |  |  | 
NCCCC[C@H](NC(=O)OCc1ccccc1)C(=O)O [Z-Lysine, N-α-Cbz-L-Lysine] |  |  |  |  | no or limited growth response | no or limited growth response |  |  | incomplete; also recorded: specific growth rescue
